Patent US20170008888A1 (KYORIN PHARMACEUTICAL CO., LTD., priority 2014, published 2017)
Marks after values point to notes of the source that are not given here.

Tested on: Imiquimod-induced psoriasis mouse model
Assay: Imiquimod (IMQ)-induced acute model of psoriasis in mouse: skin thickness, erythema, scaling
Assay type: in vivo, mouse (Balb/c)
Procedure: Material and methods for the IMQ study were adapted from van der Fits et al. J Immunol., 2009, 182: 5836-5845. Eight week old male Balb/c mice (Harlan) received a daily topical dose of 62.5 mg 5% IMQ cream (Aldara™, Medicis) equivalent to 3.125 mg IMQ, on the shaved back (approximately 2×3.5 cm patch) and dorsal surface of the right ear for 6 consecutive days. Sham control mice were treated similarly with control cream (Hydrous Emulsified Base, HEB, Cream, Fagron). Treatments were administered by group as indicated in Table 1 below prior to daily application of IMQ (QD and morning dose of BID regimens), n=10 for all groups. […] Body weights and scoring of induced clinical disease were performed after dosing (Days 1-7) but prior to IMQ application (Days 1-6) on Days 1 (baseline), 3, 4, 6, 8. Mice were sacrificed on Day 8 and treated back skin tissue collected and divided for fixation for histopathology (a 12 mm punch in mid-back) the remainder flash frozen; right (IMQ) and left (control) ears, spleen (after wet weight) and lung were also individually collected and flash frozen, and stored at −70° C. for subsequent biochemical analyses. Statistics were performed using one-way ANOVA with Dunnett's post-hoc test comparing treated groups to the vehicle group, using InStat software (GraphPad, La Jolla, Calif.).
The severity of clinical disease was assessed by
1) skin thickness dial gauge micrometer measurements (duplicate) of the ears and the dorsal skin at the midline of the back (equal to double true measure of dorsal skin thickness)
2) erythema and scaling, independently scored on a scale from 0-4: 0=none, 1=slight, 2=moderate, 3=marked, 4=very marked with intermediate increments of 0.5 allowed.
Clinical disease assessments included erythema, scaling, skin thickness and cumulative disease severity scores and the change in skin thickness of the ears and dorsal back skin over time compared to baseline measurements (Tables 19 and 20). Body weights of the mice were measured at baseline and at end of study, and there were no significant changes in weight in any treatment group during the study (data not shown).

With `CCOc1cc(C(=O)N2CCCN(C)CC2)ccc1Nc1cc2c(cn1)N(C)C(=O)c1ccccc1N2C` [Compound 8] the “Clinical Score Erythema (0-4), AVG Score” value (Day 1 (baseline), 60 mpk BID) was 0, the “Clinical Score Scaling (0-4), AVG Score” value (Day 1 (baseline), 60 mpk BID) was 0 and the “% Mean DORSAL BACK THICKNESS versus day 1, AVG” value (Day 3, 60 mpk BID) was 33.49%. For the same molecule, the “% Mean LEFT EAR THICKNESS [Control] versus day 1, AVG” value (“% Mean LEFT EAR THICKNESS” below) (Day 3, 60 mpk BID) was −5.16%, the “% Mean RIGHT EAR THICKNESS [IMQ] versus day 1, AVG” value (“% Mean RIGHT EAR THICKNESS” below) (Day 3, 60 mpk BID) was 0.09% and the “Clinical Score Erythema (0-4), AVG Score” value (Day 3, 60 mpk BID) was 1.25. For the same molecule, the “Clinical Score Scaling (0-4), AVG Score” value (Day 3, 60 mpk BID) was 0.5, the “% Mean DORSAL BACK THICKNESS versus day 1, AVG” value (Day 4, 60 mpk BID) was 43.51% and the “% Mean LEFT EAR THICKNESS” value (Day 4, 60 mpk BID) was −6.51%. The “% Mean RIGHT EAR THICKNESS” value (Day 4, 60 mpk BID) was 5.74%, the “Clinical Score Erythema (0-4), AVG Score” value (Day 4, 60 mpk BID) was 1.4 and the “Clinical Score Scaling (0-4), AVG Score” value (Day 4, 60 mpk BID) was 0.6. For the same molecule, the “% Mean DORSAL BACK THICKNESS versus day 1, AVG” value (Day 6, 60 mpk BID) was 74.47** %, the “% Mean LEFT EAR THICKNESS” value (Day 6, 60 mpk BID) was 1.15% and the “% Mean RIGHT EAR THICKNESS” value (Day 6, 60 mpk BID) was 36.67* %. The “Clinical Score Erythema (0-4), AVG Score” value (Day 6, 60 mpk BID) was 2.15, the “Clinical Score Scaling (0-4), AVG Score” value (Day 6, 60 mpk BID) was 2.8 and the “% Mean DORSAL BACK THICKNESS versus day 1, AVG” value (Day 8, 60 mpk BID) was 32.42^NS %. For the same molecule, the “% Mean LEFT EAR THICKNESS” value (Day 8, 60 mpk BID) was −2.25%, the “% Mean RIGHT EAR THICKNESS” value (Day 8, 60 mpk BID) was 33.58** % and the “Clinical Score Erythema (0-4), AVG Score” value (Day 8, 60 mpk BID) was 1.95. The “Clinical Score Scaling (0-4), AVG Score” value (Day 8, 60 mpk BID) was 1.7.
